Test results as given in patent US11512111B2, “Yeats inhibitors and methods of use thereof” (The University of Hong Kong, priority 2017, dated 2022).
Residues, ends and D or L forms follow the SMILES beside them. *: point of attachment. Oxazole(5-CO) = O=C(c1cnco1)*

Tests used:
AF9 YEATS domain [1] = biological target: T1, AF9 YEATS domain (Homo sapiens, UniProt P42568); experiment: Photo-cross-linking-based competition assay (photoaffinity probe, click chemistry, in-gel fluorescence); assay type: binding; conditions: for IC50: competition with photoaffinity probe, in-gel fluorescence
T1 construct: His-AF9 (1-138); His (N); made in house; host or cells: E. coli Rosetta
T1 sequence (P42568 1-138): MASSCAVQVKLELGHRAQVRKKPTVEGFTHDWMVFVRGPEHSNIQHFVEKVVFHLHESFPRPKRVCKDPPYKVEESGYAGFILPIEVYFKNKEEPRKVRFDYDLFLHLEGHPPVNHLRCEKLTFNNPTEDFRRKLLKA
Description: Mobile phase used were water with 0.1% trifluoroacetic acid (buffer A) and 90% acetonitrile in water with 0.1% trifluoroacetic acid (buffer B). The purity (>95%) and identity of peptides were confirmed by LC-MS. The inhibitory activities of the inhibitors were determined by a photo-cross-linking-based competition assay. […] The reactions were incubated for 1 h at r.t . . . . The reactions were quenched by adding 5 volumes of ice-cold acetone and placed at −20° C. overnight to precipitate proteins. After protein precipitation, samples were centrifuged at 6000×g for 5 min at 4° C. The supernatant was discarded and the pellet was washed with ice-cooled methanol twice and air-dried for 10 min. […] Samples were then resolved by SDS-PAGE. The labeled proteins were visualized by scanning the gel on a Typhoon 9410 variable mode imager (excitation 532 nm, emission filter 580 nm). A photo-cross-linking based method was used in this study to estimate inhibitory activity (FIG. 28). This method requires the use of a photoaffinity probe. The probe (probe 1 (SEQ ID NO:48), see below) is derived from a crotonylated peptide, ligand of the protein, carrying a photo-cross-linker and a terminal alkyne as bioorthogonal. The YEATS domain is incubated and bound to the probe through Kcr-dependent recognition. Upon UV-irradiation, the photo-cross-linker is activated and rapidly cross-linked to the protein, converting the non-covalent protein-probe interaction into a covalent linkage. The probe-labeled protein is subsequently conjugated to an azide-functionalized fluorescence dye (for example, rhodamine-N3, Rho-N3) via Cu(I)-catalyzed azide-alkyne cycloaddition (CuAAC, or “click” chemistry). After SDS-PAGE, the protein can be visualized by in-gel fluorescence scanning. If photo-cross-linking of the YEATS domain with photoaffinity probe is performed in the presence of an inhibitor, which occupies the Kcr binding pocket of the YEATS domain and thus inhibits the protein-probe interaction, the percentage of the YEATS domain in the sample that is labeled by the probe will be reduced. The in-gel fluorescence intensity detected will also be decreased. By varying the concentration of inhibitor added in the sample and quantifying the resulting fluorescence intensities, a competition curve of the inhibitor toward the protein-probe interaction will be obtained, which can be used to estimate the IC50 value. Due to the covalent nature of photo-cross-linking, weak protein-protein interactions can be captured and eventually visualized. The protein concentration used in the assay can be as low as several nanograms per microliter, while the fluorescence signal can still be robustly detected and quantified.

ENL = biological target: T2, ENL (Homo sapiens, UniProt Q03111); experiment: Cellular thermal shift assay (CETSA) in MOLM-13 (FLAG-ENL) cells; assay type: cell-based; conditions: MOLM13 (FLAG-ENL), 50 μM, 16 hours, anti-FLAG
T2 construct: expressed in transfected cells; host or cells: MOLM-13 (FLAG-ENL) cells
T2 sequence (Q03111 1-559): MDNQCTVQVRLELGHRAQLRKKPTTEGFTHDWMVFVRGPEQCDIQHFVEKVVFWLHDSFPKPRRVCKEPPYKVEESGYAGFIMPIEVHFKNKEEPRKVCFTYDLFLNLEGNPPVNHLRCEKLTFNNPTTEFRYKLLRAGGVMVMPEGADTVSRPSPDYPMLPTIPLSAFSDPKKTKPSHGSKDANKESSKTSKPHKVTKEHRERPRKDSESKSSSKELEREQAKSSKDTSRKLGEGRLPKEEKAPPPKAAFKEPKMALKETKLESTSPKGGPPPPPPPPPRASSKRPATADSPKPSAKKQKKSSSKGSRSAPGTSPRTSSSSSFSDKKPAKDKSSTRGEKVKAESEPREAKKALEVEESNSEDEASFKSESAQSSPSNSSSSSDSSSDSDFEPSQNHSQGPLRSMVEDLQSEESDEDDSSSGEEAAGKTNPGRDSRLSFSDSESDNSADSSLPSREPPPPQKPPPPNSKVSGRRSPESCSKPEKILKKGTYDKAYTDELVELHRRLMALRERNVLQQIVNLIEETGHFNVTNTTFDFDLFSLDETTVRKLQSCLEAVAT
Description: We next applied the cellular thermal shift assay (CETSA) to examine if XL-13m was cell permeable and could target ENL in living cells. MOLM-13 (FLAG-ENL) were treated with XL-13m for […] and then heated at different temperature to denature and precipitate proteins. […] Soluble proteins were extracted by freeze-thaw cycle and subjected to western blotting analysis.
MOLM13 (FLAG-ENL) cells were incubated with or without 50 μM compound for 16 hours and then were collected for cellular thermal shift assay (CETSA) as previously reported. Anti-FLAG antibody was used to detect ENL proteins and γ-actin blotting served as negative control.

GAS41 YEATS domain = biological target: T3, GAS41 YEATS domain (Homo sapiens, UniProt O95619); experiment: Photo-cross-linking-based competition assay; assay type: binding; conditions: competition with photoaffinity probe, in-gel fluorescence
T3 construct: His-Gas41 (15-159); His (N); made in house; host or cells: E. coli Rosetta
Description: (§1) Peptides were synthesized on a Rink-Amide MBHA resin followed by a standard Fmoc-based solid-phase peptide synthesis protocol. After all amino acids were coupled, protecting groups and cleavage of peptides from the resin were done by incubating the resin with a cleavage cocktail containing 95% trifluoroacetic acid, 2.5% triisopropylsilane, 1.5% H2O and, 1% thioanisole for 2 h. Peptides were purified by preparative HPLC with an XBridge Prep OBDTM C18 column (30 mm×250 mm, 10 μm, Waters). Mobile phase used were water with 0.1% trifluoroacetic acid (buffer A) and 90% acetonitrile in water with 0.1% trifluoroacetic acid (buffer B). The purity (>95%) and identity of peptides were confirmed by LC-MS. The inhibitory activities of the inhibitors were determined by a photo-cross-linking-based competition assay.
(§2) The probe 4.1 or 4.2 (2 μM) with indicated concentrations of different inhibitors was incubated with YEATS domain proteins (5 or 20 ng/μL) in binding buffer (50 mM HEPES, 150 mM NaCl, 2 mM MgCl2, 0.1% Tween-20, 20% glycerol, pH 7.5, with or without 50 ng/μL BSA) for 10 min at 4° C. Then, the samples were irradiated at 365 nm using a UV lamp for 20 min in a 96-well plate on ice.
(§3) To the prepared photo-cross-linking samples, 100 μM Rho-N3 (10 mM stock in DMSO) was added, followed by 1 mM TCEP (freshly prepared 50 mM stock in H2O), 100 μM TBTA (10 mM stock in DMSO), and finally the reactions were initiated by the addition of 1 mM CuSO4 (freshly prepared 50 mM stock in H2O). The reactions were incubated for 1 h at r.t . . . . The reactions were quenched by adding 5 volumes of ice-cold acetone and placed at −20° C. overnight to precipitate proteins.
(§4) After protein precipitation, samples were centrifuged at 6000×g for 5 min at 4° C. The supernatant was discarded and the pellet was washed with ice-cooled methanol twice and air-dried for 10 min. The proteins were resuspended in 1×LDS sample loading buffer (Invitrogen) with 50 mM DTT, and heated at 80° C. for 8 min. Samples were then resolved by SDS-PAGE. The labeled proteins were visualized by scanning the gel on a Typhoon 9410 variable mode imager (excitation 532 nm, emission filter 580 nm).
(§5) A photo-cross-linking based method was used in this study to estimate inhibitory activity (FIG. 28). This method requires the use of a photoaffinity probe. The probe (probe 1 (SEQ ID NO:48), see below) is derived from a crotonylated peptide, ligand of the protein, carrying a photo-cross-linker and a terminal alkyne as bioorthogonal.
(§6) The YEATS domain is incubated and bound to the probe through Kcr-dependent recognition. Upon UV-irradiation, the photo-cross-linker is activated and rapidly cross-linked to the protein, converting the non-covalent protein-probe interaction into a covalent linkage. The probe-labeled protein is subsequently conjugated to an azide-functionalized fluorescence dye (for example, rhodamine-N3, Rho-N3) via Cu(I)-catalyzed azide-alkyne cycloaddition (CuAAC, or “click” chemistry). After SDS-PAGE, the protein can be visualized by in-gel fluorescence scanning. If photo-cross-linking of the YEATS domain with photoaffinity probe is performed in the presence of an inhibitor, which occupies the Kcr binding pocket of the YEATS domain and thus inhibits the protein-probe interaction, the percentage of the YEATS domain in the sample that is labeled by the probe will be reduced. The in-gel fluorescence intensity detected will also be decreased. By varying the concentration of inhibitor added in the sample and quantifying the resulting fluorescence intensities, a competition curve of the inhibitor toward the protein-probe interaction will be obtained, which can be used to estimate the IC50 value. Due to the covalent nature of photo-cross-linking, weak protein-protein interactions can be captured and eventually visualized. The protein concentration used in the assay can be as low as several nanograms per microliter, while the fluorescence signal can still be robustly detected and quantified. […]

YEATS2 domain = biological target: T4, YEATS2 domain (Homo sapiens, UniProt Q9ULM3); experiment: Photo-cross-linking-based competition assay; assay type: binding; conditions: competition with photoaffinity probe, in-gel fluorescence
T4 construct: His-SUMO-YEATS2 (201-332); His (N); SUMO (N); made in house; host or cells: E. coli Rosetta
T4 sequence (Q9ULM3 201-332): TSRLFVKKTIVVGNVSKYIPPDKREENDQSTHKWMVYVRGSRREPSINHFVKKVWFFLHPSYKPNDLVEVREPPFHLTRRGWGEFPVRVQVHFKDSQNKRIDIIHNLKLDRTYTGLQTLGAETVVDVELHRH
Description: as §1, §2, §3, §4, §5, §6

ENL YEATS domain [2] = biological target: T5, ENL YEATS domain (Homo sapiens, UniProt Q03111); experiment: Photo-cross-linking-based competition assay; assay type: binding; conditions: for IC50: competition with photoaffinity probe, in-gel fluorescence
T5 construct: His-SUMO-ENL (1-138); His (N); SUMO (N); made in house; host or cells: E. coli Rosetta
T5 sequence (Q03111 1-138): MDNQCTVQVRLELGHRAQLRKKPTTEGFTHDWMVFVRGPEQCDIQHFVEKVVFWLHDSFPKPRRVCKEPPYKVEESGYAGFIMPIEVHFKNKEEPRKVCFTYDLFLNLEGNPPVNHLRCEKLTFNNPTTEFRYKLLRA

AF9 YEATS domain [3] = biological target: T1, AF9 YEATS domain; experiment: Isothermal titration calorimetry (ITC); assay type: binding; conditions: ITC
Description: (§7) ^1H and ^13C NMR spectra were recorded on Bruker UltraShield 400 or 600 MHz spectrometers and were calibrated using residual undeuterated solvent as an internal reference. Chemical shifts were reported in ppm, and coupling constant J was reported in Hz. Peptides were analyzed by LC-MS with an Agilent 1260 Infinity HPLC system connected to a Thermo Finnigan LCQ DecaXP MS detector. Peptides were purified on a preparative HPLC system with Waters 2535 Quaternary Gradient Module, Waters 515 HPLC pump, Waters SFO System Fluidics Organizer, and Waters 2767 Sample Manager. Photo-cross-linking was performed with an ENF-260C/FE hand-hang UV lamp (Spectroline). In-gel fluorescence scanning was performed using a Typhoon 9410 variable mode imager from GE Healthcare Life Sciences (excitation 532 nm, emission 580 nm). Images of Coomassie blue staining were acquired by MyECL Imager from Thermo Scientific. All images were processed by ImageJ software (National Institutes of Health), and contrast was adjusted appropriately. ITC experiments were performed with a MicroCal iTC200 titration calorimeter (MicroCal). IC50 and dissociation constants were fit with Origin 7.0 software package (OriginLab).
To further validate the reliability of the results obtained from the photo-cross-linking-based competition assay, we performed isothermal titration calorimetry (ITC) to determine the direct binding affinities of the inhibitors toward the AF9 YEATS domain. […] The ITC measurements were in agreement with the IC50 data, indicating the reliability of the results obtained from the photo-cross-linking-based competition assay.

ENL YEATS domain [4] = biological target: T5, ENL YEATS domain; experiment: Isothermal titration calorimetry (ITC); assay type: binding
Description: as §7
The compound Cyclic 3 was also tested with AF9 and ENL YEATS domains.

T3 sequence (O95619 15-159): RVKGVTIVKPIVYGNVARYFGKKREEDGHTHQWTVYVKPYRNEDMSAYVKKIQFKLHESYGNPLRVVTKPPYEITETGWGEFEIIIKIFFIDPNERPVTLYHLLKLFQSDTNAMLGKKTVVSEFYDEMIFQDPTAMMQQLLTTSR

| SMILES | activity on AF9 weaker than on ENL (AF9 YEATS domain [1]; ratio of IC50 values) [fold] | thermal shift: targeting of ENL protein in living cells (ENL) | IC50 (AF9 YEATS domain [1]) [µM] | IC50 (GAS41 YEATS domain) [µM] | IC50 (YEATS2 domain) [µM] | IC50 (ENL YEATS domain [2]) [µM] | activity drop on ENL compared to AF9 (ENL YEATS domain [2]; ratio of IC50 values) [fold] | Kd (AF9 YEATS domain [3]) [µM] | Kd (ENL YEATS domain [4]) [µM] |
| --- | --- | --- | --- | --- | --- | --- | --- | --- | --- |
| CC(=O)N[C@@H](C)C(=O)N[C@@H](C)C(=O)N[C@@H](CCCNC(=N)N)C(=O)N[C@@H](CCCCNC(=O)c1cnco1)C(N)=O [Compound 40] (Ac-AARK(Oxazole(5-CO))-NH2) | 6.1 | revealed the target of ENL protein |  |  |  |  |  |  |  |
| C[C@H](NC(=O)[C@@H](NC(=O)[C@H](CCC(N)=O)NC(=O)OCc1ccccc1)[C@@H](C)O)C(=O)N[C@@H](CCCNC(=N)N)C(=O)N[C@@H](CCCCNC(=O)c1cnco1)C(N)=O [Compound 27] |  |  | 0.24 | 14.5 | 98.7 |  |  |  |  |
| C[C@H](NC(=O)[C@@H](NC(=O)[C@H](CCC(N)=O)NC(=O)OCc1ccccc1)[C@@H](C)O)C(=O)N[C@@H](CCCNC(=N)N)C(=O)N[C@@H](CCCCNC(=O)c1ccco1)C(N)=O [Compound 26] |  |  | 0.26 | 123 | 42.4 | 1.3 | 5 |  |  |
| C[C@@H]1NC(=O)[C@H]([C@H](C)O)NC(=O)[C@@H](NC(=O)OCc2ccccc2)CCCCNC(=N)NCCC[C@H](C(=O)N[C@@H](CCCCNC(=O)c2cnco2)C(N)=O)NC1=O [Compound 80] |  |  |  | 53.7 | 22.7 | 12.9 |  | 0.52 | 11.4 |
